# Experimental data from PubChem BioAssay AID1963958 (Molecular Pharmacology Branch, DTP, NCI, 2024).
# Tested on: MDA-MB-231 multicell spheroids, viability
# Assay: Anticancer human tumor MDA-MB-231 cell line growth inhibition [PI3K];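 also: spheroids exposed to agents for seven days before reading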;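 as to viability, T/C: percent of vehicle control luminescence with DMSO treated spheroids as 100%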
# Conditions: for IC50: curve of first compound; for viability, T/C: stronger effect = lower value
# Outline: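 High-throughput combination screen: PI3K inhibitors crossed with targeted small molecules on complex spheroids of tumor cells, HUVEC and MSCs at 37 degrees C, 5% CO2. Top concentration was at or near clinical Cmax (otherwise 10 microM), with half-log decrements.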
# [1] = second compound 0.00316 µM, first compound 0.0316 µM
# [2] = second compound 0.00316 µM, first compound 0.1 µM
# [3] = second compound 0.01 µM, first compound 0.0316 µM
# [4] = second compound 0.01 µM, first compound 0.1 µM
# [5] = second compound 0.0316 µM, first compound 0.0316 µM
# [6] = second compound 0.0316 µM, first compound 0.1 µM
# [7] = second compound 0.1 µM, first compound 0.0316 µM
# [8] = second compound 0.1 µM, first compound 0.1 µM
# [9] = second compound 0.316 µM, first compound 0.0316 µM
# [10] = second compound 0.316 µM, first compound 0.1 µM
# [11] = second compound 1 µM, first compound 0.0316 µM
# [12] = second compound 1 µM, first compound 0.1 µM
compound,measurement,setting,value
CC(=O)c1c(C)c2cnc(Nc3ccc(N4CCNCC4)cn3)nc2n(C2CCCC2)c1=O + COc1c(OCCCN2CCOCC2)ccc2c3n(c(=NC(=O)c4cnc(N)nc4)nc12)CCN3,IC50,second compound 0.00316 µM,79.4 nM
same,IC50,second compound 0.01 µM,37.3 nM
same,IC50,second compound 0.0316 µM,10.4 nM
same,IC50,second compound 0.1 µM,< 0.316 nM
same,IC50,second compound 0.316 µM,< 0.316 nM
same,IC50,second compound 1 µM,< 0.316 nM
same,"viability, T/C","second compound 0.00316 µM, first compound 0.000316 µM",96.5%
same,"viability, T/C","second compound 0.00316 µM, first compound 0.001 µM",94.8%
same,"viability, T/C","second compound 0.00316 µM, first compound 0.00316 µM",90.4%
same,"viability, T/C","second compound 0.00316 µM, first compound 0.01 µM",85.2%
same,"viability, T/C",[1],69.5%
same,"viability, T/C",[2],45%
same,"viability, T/C","second compound 0.01 µM, first compound 0.000316 µM",80.6%
same,"viability, T/C","second compound 0.01 µM, first compound 0.001 µM",79.9%
same,"viability, T/C","second compound 0.01 µM, first compound 0.00316 µM",73.7%
same,"viability, T/C","second compound 0.01 µM, first compound 0.01 µM",62.5%
same,"viability, T/C",[3],53.6%
same,"viability, T/C",[4],35.9%
same,"viability, T/C","second compound 0.0316 µM, first compound 0.000316 µM",58.4%
same,"viability, T/C","second compound 0.0316 µM, first compound 0.001 µM",59.7%
same,"viability, T/C","second compound 0.0316 µM, first compound 0.00316 µM",54.2%
same,"viability, T/C","second compound 0.0316 µM, first compound 0.01 µM",50.5%
same,"viability, T/C",[5],41.3%
same,"viability, T/C",[6],26.7%
same,"viability, T/C","second compound 0.1 µM, first compound 0.000316 µM",46.9%
same,"viability, T/C","second compound 0.1 µM, first compound 0.001 µM",44.9%
same,"viability, T/C","second compound 0.1 µM, first compound 0.00316 µM",41.3%
same,"viability, T/C","second compound 0.1 µM, first compound 0.01 µM",39.2%
same,"viability, T/C",[7],33.1%
same,"viability, T/C",[8],21.1%
same,"viability, T/C","second compound 0.316 µM, first compound 0.000316 µM",33.4%
same,"viability, T/C","second compound 0.316 µM, first compound 0.001 µM",31%
same,"viability, T/C","second compound 0.316 µM, first compound 0.00316 µM",27.9%
same,"viability, T/C","second compound 0.316 µM, first compound 0.01 µM",27.3%
same,"viability, T/C",[9],20.4%
same,"viability, T/C",[10],16.4%
same,"viability, T/C","second compound 1 µM, first compound 0.000316 µM",25%
same,"viability, T/C","second compound 1 µM, first compound 0.001 µM",25%
same,"viability, T/C","second compound 1 µM, first compound 0.00316 µM",23.5%
same,"viability, T/C","second compound 1 µM, first compound 0.01 µM",24%
same,"viability, T/C",[11],21.6%
same,"viability, T/C",[12],19.6%
CNC(=O)c1ccc(N2C(=S)N(c3ccc(C#N)c(C(F)(F)F)c3)C(=O)C2(C)C)cc1F + COc1c(OCCCN2CCOCC2)ccc2c3n(c(=NC(=O)c4cnc(N)nc4)nc12)CCN3,IC50,second compound 0.00316 µM,> 10000 nM
same,IC50,second compound 0.01 µM,> 10000 nM
same,IC50,second compound 0.0316 µM,> 10000 nM
same,IC50,second compound 0.1 µM,< 31.6 nM
same,IC50,second compound 0.316 µM,< 31.6 nM
same,IC50,second compound 1 µM,< 31.6 nM
same,"viability, T/C",[1],98.3%
same,"viability, T/C",[2],96.5%
same,"viability, T/C","second compound 0.00316 µM, first compound 0.316 µM",98.9%
same,"viability, T/C","second compound 0.00316 µM, first compound 1 µM",97.6%
same,"viability, T/C","second compound 0.00316 µM, first compound 3.16 µM",95.9%
same,"viability, T/C","second compound 0.00316 µM, first compound 10 µM",81.3%
same,"viability, T/C",[3],82.2%
same,"viability, T/C",[4],78.5%
same,"viability, T/C","second compound 0.01 µM, first compound 0.316 µM",82.5%
same,"viability, T/C","second compound 0.01 µM, first compound 1 µM",83.7%
same,"viability, T/C","second compound 0.01 µM, first compound 3.16 µM",72.7%
same,"viability, T/C","second compound 0.01 µM, first compound 10 µM",64.2%
same,"viability, T/C",[5],63%
same,"viability, T/C",[6],64.5%
same,"viability, T/C","second compound 0.0316 µM, first compound 0.316 µM",64.8%
same,"viability, T/C","second compound 0.0316 µM, first compound 1 µM",61.7%
same,"viability, T/C","second compound 0.0316 µM, first compound 3.16 µM",59%
same,"viability, T/C","second compound 0.0316 µM, first compound 10 µM",50.9%
same,"viability, T/C",[7],50.9%
same,"viability, T/C",[8],46.2%
same,"viability, T/C","second compound 0.1 µM, first compound 0.316 µM",48.9%
same,"viability, T/C","second compound 0.1 µM, first compound 1 µM",48.1%
same,"viability, T/C","second compound 0.1 µM, first compound 3.16 µM",46.9%
same,"viability, T/C","second compound 0.1 µM, first compound 10 µM",38.8%
same,"viability, T/C",[9],34.5%
same,"viability, T/C",[10],34.4%
same,"viability, T/C","second compound 0.316 µM, first compound 0.316 µM",34.8%
same,"viability, T/C","second compound 0.316 µM, first compound 1 µM",34.6%
same,"viability, T/C","second compound 0.316 µM, first compound 3.16 µM",32.6%
same,"viability, T/C","second compound 0.316 µM, first compound 10 µM",28.3%
same,"viability, T/C",[11],25.6%
same,"viability, T/C",[12],24.8%
same,"viability, T/C","second compound 1 µM, first compound 0.316 µM",25%
same,"viability, T/C","second compound 1 µM, first compound 1 µM",24.8%
same,"viability, T/C","second compound 1 µM, first compound 3.16 µM",25.1%
same,"viability, T/C","second compound 1 µM, first compound 10 µM",22.9%
Cn1cnc2c(F)c(Nc3ccc(Br)cc3Cl)c(C(=O)NOCCO)cc21 + COc1c(OCCCN2CCOCC2)ccc2c3n(c(=NC(=O)c4cnc(N)nc4)nc12)CCN3,IC50,second compound 0.00316 µM,184 nM
same,IC50,second compound 0.01 µM,40.7 nM
same,IC50,second compound 0.0316 µM,< 9.49 nM
same,IC50,second compound 0.1 µM,< 9.49 nM
same,IC50,second compound 0.316 µM,< 9.49 nM
same,IC50,second compound 1 µM,< 9.49 nM
same,"viability, T/C","second compound 0.00316 µM, first compound 0.00949 µM",60%
same,"viability, T/C","second compound 0.00316 µM, first compound 0.03 µM",56.6%
same,"viability, T/C","second compound 0.00316 µM, first compound 0.0949 µM",52.2%
same,"viability, T/C","second compound 0.00316 µM, first compound 0.3 µM",47.5%
same,"viability, T/C","second compound 0.00316 µM, first compound 0.949 µM",41.4%
same,"viability, T/C","second compound 0.00316 µM, first compound 3 µM",29.7%
same,"viability, T/C","second compound 0.01 µM, first compound 0.00949 µM",62.1%
same,"viability, T/C","second compound 0.01 µM, first compound 0.03 µM",46.6%
same,"viability, T/C","second compound 0.01 µM, first compound 0.0949 µM",42.2%
same,"viability, T/C","second compound 0.01 µM, first compound 0.3 µM",40.4%
same,"viability, T/C","second compound 0.01 µM, first compound 0.949 µM",41.7%
same,"viability, T/C","second compound 0.01 µM, first compound 3 µM",23.6%
same,"viability, T/C","second compound 0.0316 µM, first compound 0.00949 µM",45%
same,"viability, T/C","second compound 0.0316 µM, first compound 0.03 µM",43.4%
same,"viability, T/C","second compound 0.0316 µM, first compound 0.0949 µM",38.9%
same,"viability, T/C","second compound 0.0316 µM, first compound 0.3 µM",33.1%
same,"viability, T/C","second compound 0.0316 µM, first compound 0.949 µM",28.8%
same,"viability, T/C","second compound 0.0316 µM, first compound 3 µM",12.9%
same,"viability, T/C","second compound 0.1 µM, first compound 0.00949 µM",33.7%
same,"viability, T/C","second compound 0.1 µM, first compound 0.03 µM",30.3%
same,"viability, T/C","second compound 0.1 µM, first compound 0.0949 µM",27.3%
same,"viability, T/C","second compound 0.1 µM, first compound 0.3 µM",27.1%
same,"viability, T/C","second compound 0.1 µM, first compound 0.949 µM",21%
same,"viability, T/C","second compound 0.1 µM, first compound 3 µM",7.54%
same,"viability, T/C","second compound 0.316 µM, first compound 0.00949 µM",24.3%
same,"viability, T/C","second compound 0.316 µM, first compound 0.03 µM",18.7%
same,"viability, T/C","second compound 0.316 µM, first compound 0.0949 µM",15.8%
same,"viability, T/C","second compound 0.316 µM, first compound 0.3 µM",14.4%
same,"viability, T/C","second compound 0.316 µM, first compound 0.949 µM",12.2%
same,"viability, T/C","second compound 0.316 µM, first compound 3 µM",5.36%
same,"viability, T/C","second compound 1 µM, first compound 0.00949 µM",17.7%
same,"viability, T/C","second compound 1 µM, first compound 0.03 µM",14.2%
same,"viability, T/C","second compound 1 µM, first compound 0.0949 µM",12.5%
same,"viability, T/C","second compound 1 µM, first compound 0.3 µM",9.99%
same,"viability, T/C","second compound 1 µM, first compound 0.949 µM",8.63%
same,"viability, T/C","second compound 1 µM, first compound 3 µM",4.84%
